The values that follow come from patent publication US20050197383A1, “Quaternary ammonium compounds and their use as anti-tussive agents” (UCB Farchim S.A., priority 1999, published 2005).

The assay has as its system citric acid-induced cough responses. As to the kind of experiment: citric acid-induced cough in conscious guinea-pigs (aerosol pre-treatment). It counts as in vivo, guinea-pig. The settings on record: aerosol 10.0 mg/ml pre-treatment immediately before citric acid (1M) exposure; 15 minute observation period. An excerpt:
The following method is one of the general methods available to determine the antitussive activity of the compounds of the present invention.
Male albino Dunkin-Hartley strain guinea-pigs (weight 300-400 g) can be obtained from various commercial suppliers.
The method is a modification of that described by Adcock J. J., Schneider C. and Smith T. W., “Effects of Morphine and a Novel Opioid Pentapeptide BW443C, on Cough, Nociception and Ventilation in the Unanaesthetized Guinea-pig”, Br. J. Pharmacol., 93, 93-100 (1988). […]
Cylinder air is introduced into the exposure chamber at a flow rate of 1 liter/min, maintained by a needle valve and monitored by a rotameter. […]
Cough responses are induced by exposure to an aerosol of citric acid (1M) for 10 minutes. Animals are continuously monitored by trained observer, and the number of coughs are counted during a 15 minute period from commencement of the citric acid aerosol administration. […]
The three types of response are differentiated primarily by sound and visual observation. […] Each cough is marked on the Grass polygraph paper trace, and from these record numbers, frequency and time of onset of coughs are determined. […]
Quantities of drugs are weighed out and dissolved in a vehicle. […] The sequence of pre-treatment administration is determined according to a 4×4 Latin Square design. […]

Molecules are shown by their SMILES.

With `CC(C)[N+](C)(C)CC(O)COc1cccc2ccccc12.[I-]` (stereo not shown) [N,N-dimethyl-propranolol iodide, 2-Hydroxy-N-isopropyl-N,N-dimethyl-3-(1-naphthyloxy)propan-1-aminium iodide], the “inhibition of cough responses compared with vehicle (saline) pre-treated guinea pigs” value is 50-70%.
